Laboratory results as given in ChEMBL document CHEMBL5352392, “Design, synthesis, and biological evaluation of novel dual inhibitors of heat shock protein 90/mammalian target of rapamycin (Hsp90/mTOR) against bladder cancer cells” (Eur J Med Chem, 2022).

Tests used:
T-24 [1] = assay: Antiproliferative activity against human T24 cells assessed as inhibition of cell proliferation at 1 uM by CCK8 assay relative to control; assay type: functional
SW780 [2] = assay: Antiproliferative activity against human SW780 cells assessed as inhibition of cell proliferation at 1 uM by CCK8 assay relative to control; assay type: functional
[3] = biological target: Serine/threonine-protein kinase mTOR (Homo sapiens, UniProt P42345); assay: Inhibition of mTOR (unknown origin) at 100 nM by kinase profiling assay relative to control
J82 [4] = assay: Antiproliferative activity against human J82 cells assessed as inhibition of cell proliferation at 1 uM by CCK8 assay relative to control; assay type: functional
Heat shock protein HSP90 = Heat shock protein HSP90 (Homo sapiens, UniProt P07900+P08238); conditions: dose 100.0 nM
Description: Inhibition of Hsp90 (unknown origin) at 100 nM by TR-FRET assay relative to control

SW780 [5] = assay: Antiproliferative activity against human SW780 cells assessed as inhibition of cell proliferation by CCK8 assay; assay type: functional, cell-based
J82 [6] = assay: Antiproliferative activity against human J82 cells assessed as inhibition of cell proliferation by CCK8 assay; assay type: functional, cell-based
T-24 [7] = assay: Antiproliferative activity against human T24 cells assessed as inhibition of cell proliferation by CCK8 assay; assay type: functional, cell-based
[8] = biological target: Phosphatidylinositol 4,5-bisphosphate 3-kinase catalytic subunit alpha isoform (Homo sapiens, UniProt P42336); assay: Inhibition of PI3Kalpha (unknown origin) by kinase profiling assay
Sequence of Phosphatidylinositol 4,5-bisphosphate 3-kinase catalytic subunit alpha isoform (P42336 whole entry, canonical isoform): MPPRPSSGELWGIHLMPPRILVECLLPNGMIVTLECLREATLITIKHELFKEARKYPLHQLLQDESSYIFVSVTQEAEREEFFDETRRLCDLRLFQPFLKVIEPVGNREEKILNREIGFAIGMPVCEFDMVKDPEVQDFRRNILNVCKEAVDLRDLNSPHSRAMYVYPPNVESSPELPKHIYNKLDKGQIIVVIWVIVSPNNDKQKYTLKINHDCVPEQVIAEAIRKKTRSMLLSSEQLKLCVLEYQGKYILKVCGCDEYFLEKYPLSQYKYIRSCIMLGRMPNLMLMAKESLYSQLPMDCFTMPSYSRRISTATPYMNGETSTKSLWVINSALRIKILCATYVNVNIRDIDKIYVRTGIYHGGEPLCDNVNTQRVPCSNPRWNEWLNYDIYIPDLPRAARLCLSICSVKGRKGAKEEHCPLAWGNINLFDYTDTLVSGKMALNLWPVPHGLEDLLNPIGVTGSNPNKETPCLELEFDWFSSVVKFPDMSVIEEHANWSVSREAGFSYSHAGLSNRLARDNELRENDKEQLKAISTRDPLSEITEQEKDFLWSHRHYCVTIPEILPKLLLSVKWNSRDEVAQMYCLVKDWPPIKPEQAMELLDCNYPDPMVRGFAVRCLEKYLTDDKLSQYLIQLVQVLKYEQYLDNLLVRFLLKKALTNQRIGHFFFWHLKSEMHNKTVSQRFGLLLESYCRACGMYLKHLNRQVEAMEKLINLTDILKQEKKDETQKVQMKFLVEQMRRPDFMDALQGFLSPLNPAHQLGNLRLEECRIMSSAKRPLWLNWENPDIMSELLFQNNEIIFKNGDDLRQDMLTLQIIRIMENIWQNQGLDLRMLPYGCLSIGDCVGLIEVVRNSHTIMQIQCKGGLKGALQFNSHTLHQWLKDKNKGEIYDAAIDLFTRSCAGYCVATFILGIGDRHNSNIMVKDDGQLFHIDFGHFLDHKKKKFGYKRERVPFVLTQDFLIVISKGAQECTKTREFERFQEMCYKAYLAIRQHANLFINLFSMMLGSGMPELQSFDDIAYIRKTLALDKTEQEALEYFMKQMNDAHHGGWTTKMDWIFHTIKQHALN

SMILES	inhibition at 1 µM (T-24 [1])	inhibition at 1 µM (SW780 [2])	inhibition [3]	inhibition at 1 µM (J82 [4])	inhibition (Heat shock protein HSP90)	IC50 (SW780 [5])	IC50 (J82 [6])	IC50 (T-24 [7])	IC50 [8]
CN1CCc2c(sc3nc(-c4ccncc4)nc(N4CCOCC4)c23)C1	30.5%	26.3%	44.3%	37.6%	–	–	–	–	–
CC(C)c1cc(C(=O)N2CCc3c(sc4nc(-c5ccc(NC(=O)Nc6ccccc6F)cc5)nc(N5CCOCC5)c34)C2)c(O)cc1O	70.1%	83.7%	74.8%	78.7%	70%	–	–	–	–
CCNC(=O)c1noc(-c2cc(C(C)C)c(O)cc2O)c1-c1ccc(CN2CCOCC2)cc1 [LUMINESPIB]	38.8%	46.4%	–	35.1%	–	3.95 µM	5.2 µM	4.93 µM	–
Cc1ccccc1NC(=O)Nc1ccc(-c2nc(N3CCOCC3)c3c4c(sc3n2)CN(C(=O)c2cc(C(C)C)c(O)cc2O)CC4)cc1	78%	53.7%	68.2%	66.2%	62.6%	–	–	–	–
COc1ccc(-c2ccc3c(N4CCOC[C@@H]4C)nc(N4CCOC[C@@H]4C)nc3n2)cc1CO [AZD-8055]	73.3%	79.6%	93.3%	72.4%	–	0.81 µM	0.65 µM	0.54 µM	4.45 µM
Cc1ccc(NC(=O)Nc2ccc(-c3nc(N4CCOCC4)c4c5c(sc4n3)CN(C(=O)c3cc(C(C)C)c(O)cc3O)CC5)cc2)cc1	67.8%	74.5%	71.8%	65.8%	61.6%	–	–	–	–
CC(C)c1cc(C(=O)N2CCc3c(sc4nc(-c5ccc(NC(=O)Nc6ccccc6Cl)cc5)nc(N5CCOCC5)c34)C2)c(O)cc1O	73.8%	88.8%	76.8%	72.4%	64.5%	–	–	–	–
CCNC(=O)Nc1ccc(-c2nc(N3CCOCC3)c3c4c(sc3n2)CN(C(=O)c2cc(C(C)C)c(O)cc2O)CC4)cc1	57.9%	70.2%	68.6%	67.6%	62.2%	–	–	–	–
CC(C)c1cc(C(=O)N2CCc3c(sc4nc(N5CCOCC5)nc(N5CCOC(F)(F)C5)c34)C2)c(O)cc1O	42.1%	37.1%	44.1%	41.4%	27.5%	–	–	–	–
CC(C)c1cc(C(=O)N2CCc3c(sc4nc(-c5ccc(NC(=O)Nc6cccc(F)c6)cc5)nc(N5CCOCC5)c34)C2)c(O)cc1O	63.8%	59.9%	47.7%	58.8%	64.9%	–	–	–	–
CCNC(=O)N(C(=O)NCC)c1ccc(-c2nc(N3CCOCC3)c3c4c(sc3n2)CN(C(=O)c2cc(C(C)C)c(O)cc2O)CC4)cc1	61%	63.2%	53.5%	53.4%	55.7%	–	–	–	–
CC(C)c1cc(C(=O)N2CCc3c(sc4nc(N5CCN(C)CC5)nc(N5CCOCC5)c34)C2)c(O)cc1O	69.9%	68%	62.6%	59.2%	63.8%	–	–	–	–
CC(C)c1cc(C(=O)N2CCc3c(sc4nc(N5CCOCC5)nc(N5CCC(F)(F)CC5)c34)C2)c(O)cc1O	50.3%	52.1%	45.1%	49.8%	43.6%	–	–	–	–
CC(C)c1cc(C(=O)N2CCc3c(sc4nc(N5CCOCC5)nc(N5CCC(N(C)C)CC5)c34)C2)c(O)cc1O	55.8%	64.5%	76.7%	52.7%	45.5%	–	–	–	–
CN1CCc2c(sc3nc(-c4ccc(N)cc4)nc(N4CCOCC4)c23)C1	32.8%	20.7%	66.2%	50.4%	–	–	–	–	–
CC(C)c1cc(C(=O)N2CCc3c(sc4nc(N5CCOCC5)nc(N5CCN(C)CC5)c34)C2)c(O)cc1O	40.9%	44.9%	32.7%	37.2%	40.8%	–	–	–	–
CC(C)c1cc(C(=O)N2CCc3c(sc4nc(-c5ccncc5)nc(N5CCOCC5)c34)C2)c(O)cc1O	47.1%	39.5%	49.8%	37.8%	35.4%	–	–	–	–
Cc1cccc(NC(=O)Nc2ccc(-c3nc(N4CCOCC4)c4c5c(sc4n3)CN(C(=O)c3cc(C(C)C)c(O)cc3O)CC5)cc2)c1	84.1%	62.5%	74.7%	60.5%	64.6%	–	–	–	–
CC(C)c1cc(C(=O)N2CCc3c(sc4nc(-c5ccc(NC(=O)Nc6ccc(Cl)cc6)cc5)nc(N5CCOCC5)c34)C2)c(O)cc1O	86%	83.2%	77.3%	83.9%	66.5%	–	–	–	–

SMILES	inhibition at 1 µM (T-24 [1])	inhibition at 1 µM (SW780 [2])	inhibition [3]	inhibition at 1 µM (J82 [4])	inhibition (Heat shock protein HSP90)	IC50 (SW780 [5])	IC50 (J82 [6])	IC50 (T-24 [7])	IC50 [8]
CC(C)c1cc(C(=O)N2CCc3c(sc4nc(N5CCCC5)nc(N5CCOCC5)c34)C2)c(O)cc1O	54%	42.1%	52.3%	43.1%	46.6%	–	–	–	–
CC(C)c1cc(C(=O)N2CCc3c(sc4nc(N5CCOCC5)nc(NC5CCOCC5)c34)C2)c(O)cc1O	29.5%	38.9%	33.7%	37.1%	38.2%	–	–	–	–
CC(C)c1cc(C(=O)N2CCc3c(sc4nc(N5CCOCC5)nc(N5CCCC5)c34)C2)c(O)cc1O	57.7%	46%	40.9%	47.9%	53%	–	–	–	–
CC(C)c1cc(C(=O)N2CCc3c(sc4nc(NCCN5CCOCC5)nc(N5CCOCC5)c34)C2)c(O)cc1O	78%	55.2%	68.2%	72.2%	62.1%	–	–	–	–
CC(C)c1cc(C(=O)N2CCc3c(sc4nc(N5CCOC(F)(F)C5)nc(N5CCOCC5)c34)C2)c(O)cc1O	63.8%	58.8%	57.6%	62.7%	53.8%	–	–	–	–
CC(C)c1cc(C(=O)N2CCc3c(sc4nc(-c5ccc(NC(=O)Nc6ccccc6)cc5)nc(N5CCOCC5)c34)C2)c(O)cc1O	60.1%	66.2%	74.5%	79.7%	59.2%	–	–	–	–
CC(C)c1cc(C(=O)N2CCc3c(sc4nc(-c5ccc(NC(=O)N6CCOCC6)cc5)nc(N5CCOCC5)c34)C2)c(O)cc1O	44.8%	49.8%	53.7%	67.2%	58.4%	–	–	–	–
CC(C)c1cc(C(=O)N2CCc3c(sc4nc(-c5ccc(NC(=O)N6CCCCC6)cc5)nc(N5CCOCC5)c34)C2)c(O)cc1O	41.6%	45.1%	50.4%	54.9%	46.7%	–	–	–	–
CC(C)c1cc(C(=O)N2CCc3c(sc4nc(N5CCC(F)(F)CC5)nc(N5CCOCC5)c34)C2)c(O)cc1O	34.4%	37.9%	41.3%	45%	36.3%	–	–	–	–
CC(C)c1cc(C(=O)N2CCc3c(sc4nc(N5CCOCC5)nc(N5CCOCC5)c34)C2)c(O)cc1O	44.8%	62.7%	68.8%	65%	42.4%	–	–	–	–
CC(C)c1cc(C(=O)N2CCc3c(sc4nc(-c5ccc(NC(=O)Nc6ccc(C(F)(F)F)cc6)cc5)nc(N5CCOCC5)c34)C2)c(O)cc1O	61.3%	61.3%	66.4%	69%	62.8%	–	–	–	–
CC(C)c1cc(C(=O)N2CCc3c(sc4nc(N5CCOCC5)nc(NCCN5CCOCC5)c34)C2)c(O)cc1O	50.2%	75%	39.1%	58.7%	81.5%	–	–	–	–
CC(C)c1cc(C(=O)N2CCc3c(sc4nc(-c5ccc(N)cc5)nc(N5CCOCC5)c34)C2)c(O)cc1O	70.6%	66.2%	67.4%	64.4%	57.8%	–	–	–	–
CC(C)c1cc(C(=O)N2CCc3c(sc4nc(N5CCOCC5)nc(N5CCCCC5)c34)C2)c(O)cc1O	57.1%	47.6%	56.6%	55.4%	54.9%	–	–	–	–
CC(C)c1cc(C(=O)N2CCc3c(sc4nc(-c5ccc(NC(=O)Nc6cc(F)cc(F)c6)cc5)nc(N5CCOCC5)c34)C2)c(O)cc1O	61.3%	53.5%	70.5%	78%	58.1%	–	–	–	–
CC(C)c1cc(C(=O)N2CCc3c(sc4nc(NC5CCOCC5)nc(N5CCOCC5)c34)C2)c(O)cc1O	49.7%	61%	57.5%	57.6%	58%	–	–	–	–
CC(C)c1cc(C(=O)N2CCc3c(sc4nc(N5CCCCC5)nc(N5CCOCC5)c34)C2)c(O)cc1O	43.5%	49.5%	55.7%	55%	46.6%	–	–	–	–
CC(C)c1cc(C(=O)N2CCc3c(sc4nc(-c5ccc(NC(=O)Nc6ccc(F)cc6)cc5)nc(N5CCOCC5)c34)C2)c(O)cc1O	76.8%	69.8%	77.4%	57.8%	63.2%	–	–	–	–
